In assay [1] the test system is class B β-lactamases. The assay can be described thus: Inhibition of class B β-lactamases, summary in words. The assay is classed as biochemical. The note with it: summary of Table 1 in words. The procedure:
(§1) Representative compounds of the invention were evaluated as inhibitors of two serine β-lactamases: Enterobacter cloacae P99 (class C), TEM-1 (class A), as well as two class B enzymes: the L1 metallo-β-lactamse derived from Stenotrophomonas maltophilia) and the metallo-β-lactamase derived from the Bacillus cereus microorganism. The IC50 value of each compound was determined as follows. Assay method involves 4 min incubation of a solution of inhibitor and enzyme (0.1 to 1 μM in enzyme), followed by transfer of an aliquot into a dilute solution of the substrate nitrocefin. Hydrolysis is monitored spectrophotometrically at 480 nm for 1 min. The rate is constant throughout this period. Error is ±10%, based on multiple experiments.

The target of assay [2] is BC1 metallo-β-lactamase (class B) (Bacillus cereus, UniProt P04190). The assay can be described thus: biochemical. The procedure:
as §1

Assay [3] concerns the target Enterobacter cloacae P99 (class C) serine β-lactamase (Enterobacter cloacae, UniProt P05364). Nature of the assay: biochemical. As to the method: as §1, with “min.” for “min. The rate is constant throughout this period. Error is ±10%, based on multiple experiments.”
In assay [4] the target is L1 metallo-β-lactamase (class B) (Stenotrophomonas maltophilia, UniProt P52700). Nature of the assay: Inhibition of L1 metallo-β-lactamase (nitrocefin hydrolysis). The assay is classed as biochemical. The procedure: as §1
Sequence of L1 metallo-β-lactamase (class B) (P52700 34-290): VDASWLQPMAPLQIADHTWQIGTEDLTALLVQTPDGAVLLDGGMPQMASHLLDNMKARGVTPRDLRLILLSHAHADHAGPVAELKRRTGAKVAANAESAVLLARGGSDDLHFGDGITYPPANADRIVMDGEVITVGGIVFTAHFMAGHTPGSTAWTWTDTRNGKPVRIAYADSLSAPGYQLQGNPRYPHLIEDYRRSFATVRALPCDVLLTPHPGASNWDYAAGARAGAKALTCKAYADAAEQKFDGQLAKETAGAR
Assay [5] deals with TEM-1 (class A) serine β-lactamase (Escherichia coli, UniProt P62593). The assay can be described thus: Inhibition of TEM-1 β-lactamase (nitrocefin hydrolysis). It is filed as biochemical. The note with it: 4 min incubation of inhibitor and enzyme (0.1 to 1 μM), substrate nitrocefin, 480 nm; error ±10%. The procedure: as §1, with “min.” for “min. The rate is constant throughout this period. Error is ±10%, based on multiple experiments.”
Sequence of TEM-1 (class A) serine β-lactamase (P62593 24-286 limits assumed): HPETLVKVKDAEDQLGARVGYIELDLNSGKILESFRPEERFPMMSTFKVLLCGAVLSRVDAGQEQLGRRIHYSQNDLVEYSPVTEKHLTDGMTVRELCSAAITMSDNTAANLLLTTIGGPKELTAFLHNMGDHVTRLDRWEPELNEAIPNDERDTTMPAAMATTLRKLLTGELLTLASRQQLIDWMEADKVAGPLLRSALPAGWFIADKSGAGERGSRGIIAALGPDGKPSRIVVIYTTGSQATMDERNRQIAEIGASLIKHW

Assay [6] relates to serine and metallo-β-lactamases. The assay can be described thus: Inhibition of serine and metallo-β-lactamases, summary in words. It is filed as biochemical. The note with it: summary of Table 1 in words. As to the method:
as §1, with “min.” for “min. The rate is constant throughout this period. Error is ±10%, based on multiple experiments.”

Setting [7] is: 4 min incubation of inhibitor and enzyme (0.1 to 1 μM), substrate nitrocefin, 480 nm, error ±10%, read-out: Inhibition IC50, P99 (Class C) (Serine).
The mark [8] stands for this setting: read-out: Inhibition IC50, BC1 (Class B) (Metallo), 4 min incubation of inhibitor and enzyme (0.1 to 1 μM), substrate nitrocefin, 480 nm, error ±10%.
[9] abbreviates: Inhibition IC50, P99 (Class C) (Serine), 4 min incubation of inhibitor and enzyme (0.1 to 1 μM), substrate nitrocefin, 480 nm, error ±10%.
The mark [10] stands for this setting: 4 min incubation of inhibitor and enzyme (0.1 to 1 μM), substrate nitrocefin, 480 nm, error ±10%, read-out: Inhibition IC50, L1 (Class B) (Metallo).

The structures appear in SMILES notation. Counter-ions that a name gives are not always drawn. Like-named read-outs stand apart in the source and are kept apart here.

Sequence of BC1 metallo-β-lactamase (class B) (P04190 31-257): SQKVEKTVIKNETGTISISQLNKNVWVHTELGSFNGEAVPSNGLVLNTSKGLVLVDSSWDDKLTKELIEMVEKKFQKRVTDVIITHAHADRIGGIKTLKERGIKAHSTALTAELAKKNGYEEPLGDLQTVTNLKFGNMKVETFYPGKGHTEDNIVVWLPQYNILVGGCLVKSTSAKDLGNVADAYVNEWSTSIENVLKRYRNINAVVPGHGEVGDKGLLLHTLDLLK
Sequence of Enterobacter cloacae P99 (class C) serine β-lactamase (P05364 21-381): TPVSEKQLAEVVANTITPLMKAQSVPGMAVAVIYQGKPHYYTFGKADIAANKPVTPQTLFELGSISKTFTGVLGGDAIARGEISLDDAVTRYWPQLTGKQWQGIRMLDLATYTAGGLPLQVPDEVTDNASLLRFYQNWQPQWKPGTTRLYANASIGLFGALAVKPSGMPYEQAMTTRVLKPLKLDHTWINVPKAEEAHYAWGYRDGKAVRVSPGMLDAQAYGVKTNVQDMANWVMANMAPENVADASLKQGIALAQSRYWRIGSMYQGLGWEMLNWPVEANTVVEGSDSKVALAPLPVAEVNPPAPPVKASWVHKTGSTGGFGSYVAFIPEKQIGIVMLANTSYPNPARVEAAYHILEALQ

As for `CC1(C)[C@H](C(=O)O)N2C(=O)C(CO)C2S1(=O)=O` (single isomer, unassigned) [Compound 15, Sodium Salt of 6β-(hydroxymethyl)penicillinate-1,1-dioxide, reference compound], the “ability to inhibit the class B β-lactamases” value in assay [1] is “none of the latter, previously known, 6-(hydroxymethyl)penicillinates possess such ability”. The IC50 was above 2000 µM in assay [2], 3.9 µM in assay [3] (setting [7]) and above 2000 µM in assay [4].
As to `CC1(C)S[C@@H]2C(CO)C(=O)N2[C@H]1C(=O)O` (single isomer, unassigned) [Compound 16, Sodium Salt of 6β-(hydroxymethyl)penicillinate, reference compound], the IC50 is 752 µM in assay [5], above 2000 µM in assay [2] (setting [8]), 409 µM in assay [3] (setting [9]) and above 2000 µM in assay [4] (setting [10]). Besides, in assay [1], the “ability to inhibit the class B β-lactamases” value is “none of the latter, previously known, 6-(hydroxymethyl)penicillinates possess such ability”.
Take `CC1(C)[C@H](C(=O)O)N2C(=O)C(CO)C2S1(=O)=O` (single isomer, unassigned) [Compound 27, Sodium Salt of 6α-(hydroxymethyl)penicillinate-1,1-dioxide, reference compound]: in assay [1], the “ability to inhibit the class B β-lactamases” value is recorded as “none of the latter, previously known, 6-(hydroxymethyl)penicillinates possess such ability”. Besides, the half-inhibitory concentration (IC50) in assay [2] (setting [8]) is above 2000 µM; in assay [3] (setting [7]), 10 µM; in assay [4] (read-out: Inhibition IC50, L1 (Class B) (Metallo), 4 min incubation of inhibitor and enzyme (0.1 to 1 μM), substrate nitrocefin, 480 nm, error ±10%), above 2000 µM.
For `CC1(C)S[C@@H]2C(CO)C(=O)N2[C@H]1C(=O)O` (single isomer, unassigned) [Compound 28, Sodium Salt of 6α-(hydroxymethyl)penicillinate, reference compound], the IC50 in assay [5] was 275 µM; in assay [2], above 2000 µM; in assay [3] (setting [9]) it was 96.2 µM; in assay [4], above 2000 µM. For the same compound, the “ability to inhibit the class B β-lactamases” value in assay [1] was “none of the latter, previously known, 6-(hydroxymethyl)penicillinates possess such ability”.
Turning to `CC1(C)S[C@@H]2C(CS)C(=O)N2[C@H]1C(=O)[O-].[Na+]` (stereo partly drawn) [Compound 9, Sodium Salt of 6β-(mercaptomethyl)penicillanic acid], the IC50 turned out to be 601 µM in assay [5], 12.3 µM in assay [2], 0.1 µM in assay [3] (setting [7]) and 72.2 µM in assay [4] (setting [10]). For the same compound, the “ability to inhibit the class B β-lactamases” value in assay [1] is “possess the ability to inhibit the class B β-lactamases”.
With `CC1(C)[C@H](C(=O)[O-])N2C(=O)[C@@H](CS)[C@H]2S1(=O)=O.[Na+]` [Compound 13, Sodium Salt of 6β-(mercaptomethyl)penicallin acid 1,1-dioxide], the IC50 in assay [5] was found to be 6.8 µM; in assay [2], 64 µM; in assay [3] (setting [9]) it was 10.5 µM; in assay [4] (setting [10]), 0.13 µM. Further, the “ability to inhibit the class B β-lactamases” value in assay [1] is “possess the ability to inhibit the class B β-lactamases”. Besides, in assay [6], the “broad spectrum inhibitory activity” value is listed as “excellent broad spectrum inhibitory activity”.
Turning to `CC1(C)S[C@@H]2[C@@H](CS)C(=O)N2[C@H]1C(=O)[O-].[Na+]` [Compound 21, Sodium Salt of 6α-(mercaptomethyl)penicillinate], the IC50 came to 648 µM in assay [5], 7.6 µM in assay [2], 3.75 µM in assay [3] (setting [7]) and 81.4 µM in assay [4] (setting [10]). Further, the “ability to inhibit the class B β-lactamases” value in assay [1] is “possess the ability to inhibit the class B β-lactamases”.
Consider `CC1(C)[C@H](C(=O)[O-])N2C(=O)[C@H](CS)[C@H]2S1(=O)=O.[Na+]` [Compound 25, Sodium Salt of 6α-(mercaptomethyl)penicallin acid 1,1-dioxide], for which the IC50 in assay [5] came to 51.7 µM; in assay [2], 770 µM; in assay [3] it was 7.5 µM; in assay [4] (setting [10]) it was 0.82 µM. Also, in assay [1], the “ability to inhibit the class B β-lactamases” value is listed as “possess the ability to inhibit the class B β-lactamases”.
With `C[C@]1(Cn2ccnn2)[C@H](C(=O)O)N2C(=O)C[C@H]2S1(=O)=O` [Tazobactam], the IC50 in assay [2] and in assay [4] (setting [10]) was above 2000 µM each time.

For the origin of these results see US7022691B2, “Inhibitors of serine and metallo-β-lactamases” (priority 2002, dated 2006).
